Assay results from US12503438B2, “Compounds for the treatment of kinase-dependent disorders” (Exelixis, Inc., priority 2019, dated 2025).

Legend:
Human Axl = molecular target: T1, Human Axl (Homo sapiens, UniProt P30530, Q764R); assay: Human AXL kinase assay (33P-phosphoryl transfer radiometric, KinaseProfiler); details: biochemical activity; 10 μM ATP
T1 construct: Human Axl (residues H473-A894 with Q764R, 161 nM); purchased Eurofins Pharma Discovery Services UK Limited (KinaseProfiler service)
T1 sequence (P30530 473-894 Q764R): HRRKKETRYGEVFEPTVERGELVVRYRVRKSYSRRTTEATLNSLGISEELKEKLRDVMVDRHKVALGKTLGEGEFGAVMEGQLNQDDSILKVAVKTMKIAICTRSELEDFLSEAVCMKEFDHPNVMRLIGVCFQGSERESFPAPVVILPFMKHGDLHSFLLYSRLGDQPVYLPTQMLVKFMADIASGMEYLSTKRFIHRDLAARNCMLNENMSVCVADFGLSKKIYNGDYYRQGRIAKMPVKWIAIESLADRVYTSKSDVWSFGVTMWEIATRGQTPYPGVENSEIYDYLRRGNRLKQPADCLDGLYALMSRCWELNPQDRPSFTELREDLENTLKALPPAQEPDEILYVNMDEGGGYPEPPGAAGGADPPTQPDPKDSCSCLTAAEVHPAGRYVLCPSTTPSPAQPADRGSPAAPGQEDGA

AXL = molecular target: T2, AXL (Homo sapiens, UniProt P30530); assay: AXL autophosphorylation ELISA in A-172 cells; format: cell-based; details: cellular activity, Gas6-stimulated, phospho-AXL ELISA
T2 construct: endogenous in cells; host or cells: A-172 glioblastoma cells (ATCC #CRL-1620)
T2 sequence (P30530 26-894): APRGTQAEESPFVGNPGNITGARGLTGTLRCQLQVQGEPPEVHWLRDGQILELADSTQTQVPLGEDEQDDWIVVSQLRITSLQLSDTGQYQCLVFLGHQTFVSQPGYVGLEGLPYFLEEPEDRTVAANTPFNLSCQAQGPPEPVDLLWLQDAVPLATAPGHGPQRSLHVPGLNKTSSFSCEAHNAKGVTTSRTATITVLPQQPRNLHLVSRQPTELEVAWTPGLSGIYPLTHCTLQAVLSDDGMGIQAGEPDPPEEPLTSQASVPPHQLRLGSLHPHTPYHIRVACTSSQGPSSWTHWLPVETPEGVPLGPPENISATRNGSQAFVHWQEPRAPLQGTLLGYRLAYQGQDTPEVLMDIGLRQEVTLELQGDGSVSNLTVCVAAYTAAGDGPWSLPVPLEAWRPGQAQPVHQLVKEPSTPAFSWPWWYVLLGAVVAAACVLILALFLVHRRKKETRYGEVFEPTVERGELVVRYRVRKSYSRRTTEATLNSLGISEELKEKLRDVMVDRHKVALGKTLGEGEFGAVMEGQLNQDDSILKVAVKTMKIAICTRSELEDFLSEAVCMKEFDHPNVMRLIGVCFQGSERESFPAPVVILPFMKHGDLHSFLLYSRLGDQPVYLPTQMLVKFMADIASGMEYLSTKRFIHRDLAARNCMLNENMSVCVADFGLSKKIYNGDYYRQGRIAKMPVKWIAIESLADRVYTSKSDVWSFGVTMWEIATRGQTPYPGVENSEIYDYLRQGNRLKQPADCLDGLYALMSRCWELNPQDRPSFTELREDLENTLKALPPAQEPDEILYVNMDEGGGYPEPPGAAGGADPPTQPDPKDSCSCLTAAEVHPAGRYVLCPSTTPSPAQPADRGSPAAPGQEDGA
In short: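 Serum-starved (24 h) A-172 glioblastoma cells got an 8-point compound series (0.3% DMSO) for 1 h, then 1 μg/mL human Gas6 for 15 min. Lysate phospho-AXL quantified by ELISA against phospho-AXL standard, normalized to DMSO and reference-inhibitor controls; IC50 by 4-parameter logistic fit.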

IC50 (Human Axl) [µM] | IC50 (AXL) [µM] | Structure (SMILES)
≤ 0.01 | ≤ 0.01 | O=C(Nc1ccc(F)cc1)C1(C(=O)Nc2ccc(Oc3ccnc4cc(-c5cnn(CCO)c5)ccc34)cc2)CC1 [Compound 18, 1-N′-(4-Fluorophenyl)-1-N-[4-[7-[1-(2-hydroxyethyl)pyrazol-4-yl]quinolin-4-yl]oxyphenyl]cyclopropane-1,1-dicarboxamide]
≤ 0.01 | ≤ 0.01 | CCn1cc(-c2ccc3c(Oc4ccc(NC(=O)C5(C(=O)Nc6ccc(F)cc6)CC5)cc4)ccnc3c2)cn1 [Compound 20, 1-N-[4-[7-(1-Ethylpyrazol-4-yl)quinolin-4-yl]oxyphenyl]-1-N′-(4-fluorophenyl)cyclopropane-1,1-dicarboxamide]
≤ 0.01 | ≤ 0.01 | O=C(Nc1ccc(F)cc1)C1(C(=O)Nc2ccc(Oc3ccnc4cc(-c5cnn(CCN6CCOCC6)c5)ccc34)cc2)CC1 [Compound 19, 1-N′-(4-Fluorophenyl)-1-N-[4-[7-[1-(2-morpholin-4-ylethyl)pyrazol-4-yl]quinolin-4-yl]oxyphenyl]cyclopropane-1,1-dicarboxamide]
≤ 0.01 | ≤ 0.01 | CS(=O)(=O)n1cc(-c2ccc3c(Oc4ccc(NC(=O)C5(C(=O)Nc6ccc(F)cc6)CC5)cc4)ccnc3c2)cn1 [Compound 79, 1-N′-(4-Fluorophenyl)-1-N-[4-[7-(1-methylsulfonylpyrazol-4-yl)quinolin-4-yl]oxyphenyl]cyclopropane-1,1-dicarboxamide]
